Results reported in patent US8618023B2, “Microbiocides” (Syngenta Crop Protection, LLC, priority 2006, dated 2013).

Row | SMILES | melting point
1 | Cn1cc(C(=O)NC2CC2c2ccc(Cl)cc2)c(C(F)F)n1 (centres unmarked) [Compound 1.001, 3-difluoromethyl-1-methyl-1H-pyrazole-4-carboxylic acid [2-(4-chlorophenyl)-cyclopropyl]-amide] | 127 °C
2 | O=C(N[C@@H]1C[C@]1(F)c1ccc(Cl)cc1)c1ccccc1C(F)(F)F [Compound 6.004, N-[(1R,2S)-2-(4-chlorophenyl)-2-fluoro-cyclopropyl]-2-trifluoromethyl-benzamide] | 204 to 206 °C
